Data: ChEMBL document CHEMBL4334496, “Identification of a Unique Resorcylic Acid Lactone Derivative That Targets Both Lymphangiogenesis and Angiogenesis” (J Med Chem, 2019)
pIC50: −log10 of the molar value. One block for each compound: values may come before it. The source made the active and inactive calls. The calls are words filed in the database; no cut-off is given here.

Assays:
[1] = target: T1, Receptor-type tyrosine-protein kinase FLT3 (Homo sapiens, UniProt P36888)
T1 sequence (P36888 whole entry): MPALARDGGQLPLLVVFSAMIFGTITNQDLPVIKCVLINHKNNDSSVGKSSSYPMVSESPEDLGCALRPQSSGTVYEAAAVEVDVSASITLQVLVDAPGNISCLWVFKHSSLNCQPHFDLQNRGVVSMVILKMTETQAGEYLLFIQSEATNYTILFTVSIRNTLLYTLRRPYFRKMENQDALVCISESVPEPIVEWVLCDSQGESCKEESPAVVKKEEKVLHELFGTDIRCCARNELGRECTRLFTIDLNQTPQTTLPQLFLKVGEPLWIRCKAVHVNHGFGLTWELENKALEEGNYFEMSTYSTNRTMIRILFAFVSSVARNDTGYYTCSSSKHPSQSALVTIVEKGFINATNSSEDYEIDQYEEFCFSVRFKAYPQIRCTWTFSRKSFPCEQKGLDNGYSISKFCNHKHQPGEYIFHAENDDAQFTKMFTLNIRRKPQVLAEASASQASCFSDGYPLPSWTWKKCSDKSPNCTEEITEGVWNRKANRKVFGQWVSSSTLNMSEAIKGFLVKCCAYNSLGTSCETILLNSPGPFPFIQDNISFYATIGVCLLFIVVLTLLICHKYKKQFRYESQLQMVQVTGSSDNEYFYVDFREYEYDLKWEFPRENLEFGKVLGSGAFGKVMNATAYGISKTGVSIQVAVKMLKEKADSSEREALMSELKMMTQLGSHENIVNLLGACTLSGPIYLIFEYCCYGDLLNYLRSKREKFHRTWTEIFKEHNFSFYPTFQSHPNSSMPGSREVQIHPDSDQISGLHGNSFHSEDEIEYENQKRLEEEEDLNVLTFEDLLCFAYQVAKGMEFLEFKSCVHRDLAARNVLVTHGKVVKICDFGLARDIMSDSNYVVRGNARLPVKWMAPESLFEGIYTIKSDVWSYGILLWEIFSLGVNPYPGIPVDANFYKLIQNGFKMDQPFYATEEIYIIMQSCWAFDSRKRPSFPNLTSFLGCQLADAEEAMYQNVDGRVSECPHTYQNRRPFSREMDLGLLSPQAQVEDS

[2] = target: T2, Vascular endothelial growth factor receptor 2 (Homo sapiens, UniProt P35968)
T2 sequence (P35968 whole entry): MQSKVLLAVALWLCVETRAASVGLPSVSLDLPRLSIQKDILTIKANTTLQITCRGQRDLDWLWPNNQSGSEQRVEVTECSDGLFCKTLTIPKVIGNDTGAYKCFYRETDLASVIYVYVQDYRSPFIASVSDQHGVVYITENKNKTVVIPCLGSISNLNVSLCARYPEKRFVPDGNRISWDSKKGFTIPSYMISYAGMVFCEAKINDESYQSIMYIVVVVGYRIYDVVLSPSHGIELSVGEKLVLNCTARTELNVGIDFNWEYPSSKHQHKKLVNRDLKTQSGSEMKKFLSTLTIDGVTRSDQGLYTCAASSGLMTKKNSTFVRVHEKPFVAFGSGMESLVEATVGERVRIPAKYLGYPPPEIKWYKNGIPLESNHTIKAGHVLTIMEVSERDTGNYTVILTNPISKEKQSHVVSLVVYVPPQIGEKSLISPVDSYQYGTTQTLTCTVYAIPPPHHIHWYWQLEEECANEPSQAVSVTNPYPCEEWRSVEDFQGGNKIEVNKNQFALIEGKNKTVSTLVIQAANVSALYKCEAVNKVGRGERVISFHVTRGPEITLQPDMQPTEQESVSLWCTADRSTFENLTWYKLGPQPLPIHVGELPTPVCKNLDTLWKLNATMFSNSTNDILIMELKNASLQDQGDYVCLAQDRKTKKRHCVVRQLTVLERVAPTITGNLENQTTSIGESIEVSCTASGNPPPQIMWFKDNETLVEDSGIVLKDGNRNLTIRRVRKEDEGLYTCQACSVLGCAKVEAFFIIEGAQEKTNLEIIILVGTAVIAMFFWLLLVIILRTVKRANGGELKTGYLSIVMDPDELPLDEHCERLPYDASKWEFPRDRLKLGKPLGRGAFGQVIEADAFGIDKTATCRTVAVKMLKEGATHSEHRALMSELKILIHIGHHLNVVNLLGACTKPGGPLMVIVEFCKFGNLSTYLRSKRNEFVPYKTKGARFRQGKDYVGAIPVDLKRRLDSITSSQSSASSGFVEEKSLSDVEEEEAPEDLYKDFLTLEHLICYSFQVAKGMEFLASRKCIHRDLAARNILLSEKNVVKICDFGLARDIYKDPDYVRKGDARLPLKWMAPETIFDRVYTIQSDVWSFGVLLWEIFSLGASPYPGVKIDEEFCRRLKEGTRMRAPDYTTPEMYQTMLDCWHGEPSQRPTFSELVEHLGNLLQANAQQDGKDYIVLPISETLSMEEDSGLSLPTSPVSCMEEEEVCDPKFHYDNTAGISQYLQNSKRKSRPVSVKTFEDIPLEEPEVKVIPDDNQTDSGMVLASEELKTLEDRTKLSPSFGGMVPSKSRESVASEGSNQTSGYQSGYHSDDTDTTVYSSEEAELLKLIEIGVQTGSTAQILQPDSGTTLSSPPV
Description: Inhibition of human VEGFR2 using poly[Glu:Tyr] (4:1) substrate and [gamma-33P]-ATP by radiometric biochemical kinase assay

[3] = target: T3, Vascular endothelial growth factor receptor 3 (Homo sapiens, UniProt P35916)
T3 sequence (P35916 whole entry): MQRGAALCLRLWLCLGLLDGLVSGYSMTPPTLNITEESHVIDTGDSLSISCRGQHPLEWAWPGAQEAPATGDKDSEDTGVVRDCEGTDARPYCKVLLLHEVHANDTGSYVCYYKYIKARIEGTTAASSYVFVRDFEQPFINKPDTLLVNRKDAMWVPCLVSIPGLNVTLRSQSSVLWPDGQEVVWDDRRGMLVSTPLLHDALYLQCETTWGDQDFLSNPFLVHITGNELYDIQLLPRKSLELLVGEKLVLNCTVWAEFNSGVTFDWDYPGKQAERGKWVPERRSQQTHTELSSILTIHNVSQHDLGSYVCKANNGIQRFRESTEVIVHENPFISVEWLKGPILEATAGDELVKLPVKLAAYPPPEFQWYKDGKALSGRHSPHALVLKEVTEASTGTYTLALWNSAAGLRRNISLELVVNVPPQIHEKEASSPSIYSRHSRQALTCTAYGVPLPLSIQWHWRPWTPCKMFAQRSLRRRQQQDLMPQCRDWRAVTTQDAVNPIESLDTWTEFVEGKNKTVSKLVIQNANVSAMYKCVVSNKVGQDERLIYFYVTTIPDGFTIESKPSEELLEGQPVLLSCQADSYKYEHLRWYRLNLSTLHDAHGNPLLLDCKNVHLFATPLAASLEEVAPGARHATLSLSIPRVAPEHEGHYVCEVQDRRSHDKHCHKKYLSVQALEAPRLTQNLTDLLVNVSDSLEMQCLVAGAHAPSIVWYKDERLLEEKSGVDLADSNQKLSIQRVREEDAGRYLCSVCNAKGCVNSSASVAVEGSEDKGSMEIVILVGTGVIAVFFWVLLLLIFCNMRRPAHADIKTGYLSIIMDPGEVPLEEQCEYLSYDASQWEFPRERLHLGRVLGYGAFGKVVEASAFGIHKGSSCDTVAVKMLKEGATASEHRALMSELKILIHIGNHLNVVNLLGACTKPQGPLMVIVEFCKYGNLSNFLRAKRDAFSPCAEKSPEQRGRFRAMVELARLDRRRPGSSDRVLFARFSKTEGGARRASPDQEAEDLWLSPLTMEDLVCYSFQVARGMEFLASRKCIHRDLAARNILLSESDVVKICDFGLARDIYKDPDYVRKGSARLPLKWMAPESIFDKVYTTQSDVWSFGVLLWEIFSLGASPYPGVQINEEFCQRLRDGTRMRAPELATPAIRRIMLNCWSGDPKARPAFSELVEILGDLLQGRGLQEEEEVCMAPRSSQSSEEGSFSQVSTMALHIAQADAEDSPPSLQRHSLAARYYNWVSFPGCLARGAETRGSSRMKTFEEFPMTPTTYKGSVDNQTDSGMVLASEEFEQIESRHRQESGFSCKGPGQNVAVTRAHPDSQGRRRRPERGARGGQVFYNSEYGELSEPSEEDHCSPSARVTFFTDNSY
Description: Inhibition of human VEGFR3 using poly[Glu:Tyr] (4:1) substrate and [gamma-33P]-ATP by radiometric biochemical kinase assay

[4] = target: T2, Vascular endothelial growth factor receptor 2; remark: listed apart in the source
Description: Inhibition of TEL-fused VEGFR2 (unknown origin) expressed in mouse BA/F3 cells assessed as inhibition of cell growth incubated for 72 hrs by Cell-titer-Glo assay

[5] = target: T3, Vascular endothelial growth factor receptor 3; remark: listed apart in the source
Description: Inhibition of TEL-fused VEGFR3 (unknown origin) expressed in mouse BA/F3 cells assessed as inhibition of cell growth incubated for 72 hrs by Cell-titer-Glo assay

[6] = target: Receptor-type tyrosine-protein kinase FLT3 (Homo sapiens) (UniProt P36888)
Description: Inhibition of TEL-fused FLT3 (unknown origin) expressed in mouse BA/F3 cells assessed as inhibition of cell growth incubated for 72 hrs by Cell-titer-Glo assay

[7] = in vitro; details: mouse, BA/F3 cells
Description: Growth inhibition of mouse BA/F3 cells assessed as inhibition of cell growth incubated for 72 hrs by Cell-titer-Glo assay

[8] = target: T4, Vascular endothelial growth factor receptor 1 (Homo sapiens, UniProt P17948); assay: Inhibition of human VEGFR1 using poly[Glu:Tyr] (4:1) substrate and [gamma-33P]-ATP by radiometric biochemical kinase assay
T4 sequence (P17948 whole entry): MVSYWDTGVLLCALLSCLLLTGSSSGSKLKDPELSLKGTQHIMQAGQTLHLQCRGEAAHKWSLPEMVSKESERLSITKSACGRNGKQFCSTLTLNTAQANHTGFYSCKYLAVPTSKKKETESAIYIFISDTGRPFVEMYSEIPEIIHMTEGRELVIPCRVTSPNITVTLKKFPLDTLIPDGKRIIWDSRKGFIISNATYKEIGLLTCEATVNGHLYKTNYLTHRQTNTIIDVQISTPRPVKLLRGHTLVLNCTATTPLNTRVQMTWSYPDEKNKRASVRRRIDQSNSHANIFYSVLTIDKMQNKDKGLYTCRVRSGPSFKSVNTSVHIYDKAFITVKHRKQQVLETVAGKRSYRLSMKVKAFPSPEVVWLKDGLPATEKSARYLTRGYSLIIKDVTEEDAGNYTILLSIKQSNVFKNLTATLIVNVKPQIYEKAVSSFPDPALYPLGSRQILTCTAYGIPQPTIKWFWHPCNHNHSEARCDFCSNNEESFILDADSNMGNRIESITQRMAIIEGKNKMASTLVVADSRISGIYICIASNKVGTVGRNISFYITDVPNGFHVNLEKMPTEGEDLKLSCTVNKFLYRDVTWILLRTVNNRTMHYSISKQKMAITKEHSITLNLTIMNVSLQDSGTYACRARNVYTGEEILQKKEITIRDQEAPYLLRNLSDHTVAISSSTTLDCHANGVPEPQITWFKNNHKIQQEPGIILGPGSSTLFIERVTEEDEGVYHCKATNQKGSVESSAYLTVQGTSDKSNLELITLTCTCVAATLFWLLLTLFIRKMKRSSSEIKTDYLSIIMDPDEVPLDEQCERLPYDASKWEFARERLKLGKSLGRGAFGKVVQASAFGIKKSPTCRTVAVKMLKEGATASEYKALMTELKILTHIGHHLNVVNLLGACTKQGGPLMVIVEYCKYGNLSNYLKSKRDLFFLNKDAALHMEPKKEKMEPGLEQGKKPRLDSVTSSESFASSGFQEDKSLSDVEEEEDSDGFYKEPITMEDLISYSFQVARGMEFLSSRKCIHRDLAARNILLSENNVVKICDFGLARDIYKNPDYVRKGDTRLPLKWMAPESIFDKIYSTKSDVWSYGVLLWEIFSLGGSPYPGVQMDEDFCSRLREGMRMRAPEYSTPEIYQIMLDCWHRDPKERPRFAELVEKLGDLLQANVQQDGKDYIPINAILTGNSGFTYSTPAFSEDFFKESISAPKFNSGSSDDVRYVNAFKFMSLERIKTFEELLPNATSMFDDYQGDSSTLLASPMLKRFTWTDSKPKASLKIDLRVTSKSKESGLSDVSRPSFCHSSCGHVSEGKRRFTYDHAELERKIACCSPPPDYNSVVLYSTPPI

[9] = target: T4, Vascular endothelial growth factor receptor 1; assay: Inhibition of human VEGFR1 assessed as enzyme residual activity at 10 uM using poly[Glu:Tyr] (4:1) substrate and [gamma-33P]-ATP by radiometric biochemical kinase assay relative to control
[10] = target: c-Kit (Mast/stem cell growth factor receptor Kit) (Homo sapiens, UniProt P10721); assay: Inhibition of human c-Kit assessed as enzyme residual activity at 10 uM using poly[Glu:Tyr] (4:1) substrate and [gamma-33P]-ATP by radiometric biochemical kinase assay relative to control; details: probe poly[Glu:Tyr] (4:1), read-out: Activity
c-Kit (Mast/stem cell growth factor receptor Kit), sequence (P10721 whole entry): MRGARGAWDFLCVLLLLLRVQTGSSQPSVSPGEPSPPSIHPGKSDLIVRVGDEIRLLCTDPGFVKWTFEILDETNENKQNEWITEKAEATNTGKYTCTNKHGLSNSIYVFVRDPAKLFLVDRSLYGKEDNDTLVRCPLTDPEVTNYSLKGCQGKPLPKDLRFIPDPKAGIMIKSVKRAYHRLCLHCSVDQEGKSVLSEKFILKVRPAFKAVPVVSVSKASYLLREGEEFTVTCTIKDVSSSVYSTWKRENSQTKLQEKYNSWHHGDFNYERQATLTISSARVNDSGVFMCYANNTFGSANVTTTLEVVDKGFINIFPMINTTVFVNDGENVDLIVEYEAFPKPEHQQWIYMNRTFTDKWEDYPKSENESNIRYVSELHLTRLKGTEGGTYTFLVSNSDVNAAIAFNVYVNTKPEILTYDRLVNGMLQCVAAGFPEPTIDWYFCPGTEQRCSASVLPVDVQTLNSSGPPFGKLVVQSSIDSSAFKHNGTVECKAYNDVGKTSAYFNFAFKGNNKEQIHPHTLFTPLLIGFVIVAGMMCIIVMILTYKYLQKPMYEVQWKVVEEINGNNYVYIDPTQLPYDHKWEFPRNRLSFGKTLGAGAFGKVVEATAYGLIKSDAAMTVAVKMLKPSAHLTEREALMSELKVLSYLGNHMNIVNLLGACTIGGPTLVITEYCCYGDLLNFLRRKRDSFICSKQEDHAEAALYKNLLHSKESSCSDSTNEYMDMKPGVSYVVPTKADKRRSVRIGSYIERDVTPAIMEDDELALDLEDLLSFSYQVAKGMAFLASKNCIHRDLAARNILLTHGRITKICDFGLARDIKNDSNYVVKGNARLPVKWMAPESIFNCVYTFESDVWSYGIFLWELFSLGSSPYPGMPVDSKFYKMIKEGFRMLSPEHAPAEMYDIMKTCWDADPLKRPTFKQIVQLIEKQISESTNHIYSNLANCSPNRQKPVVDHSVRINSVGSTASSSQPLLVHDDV

[11] = species: Homo sapiens; assay: Anti-lymphangiogenic activity in HDLEC assessed as reduction in human A375 cells-induced lymphatic sprouting at 1 to 10 uM incubated for 4 days by Hoechst 33342 and phalloidin staining based microfluidic platform assay relative to control; format: functional, cell-based
[12] = species: Homo sapiens; assay: Anti-lymphangiogenic activity in HDLEC assessed as reduction in human MIAPaCa-2 cells-induced lymphatic sprouting at 1 to 10 uM incubated for 4 days by Hoechst 33342 and phalloidin staining based microfluidic platform assay relative to control; format: functional, cell-based
[13] = system: HUVEC; assay: Anti-angiogenesis activity in HUVEC assessed as inhibition of VEGF-A-induced cell migration at 0.1 uM incubated for 12 hrs by wound healing assay; format: functional, cell-based; details: Homo sapiens
[14] = system: HUVEC; assay: Anti-angiogenesis activity in HUVEC assessed as inhibition of VEGF-A-induced tube formation at 0.1 uM incubated for 6 hrs by tube formation assay; format: functional, cell-based; details: Homo sapiens
[15] = system: Mus musculus; assay: Anti-lymphangiogenic activity in C57BL/6 mouse assessed as suppression of suture-induced corneal lymphangiogenesis at 200 nM administered topically every 12 hrs for 7 days by immunohistochemical analysis; format: functional, organism-based
[16] = system: Mus musculus; assay: Anti-angiogenesis activity in C57BL/6 mouse assessed as suppression of suture-induced corneal angiogenesis at 200 nM administered topically every 12 hrs for 7 days by immunohistochemical analysis; format: functional, organism-based
[17] = Toxicity in C57BL/6 mouse assessed as induction of clinically detectable corneal-epitheliopathy at 200 nM administered topically every 12 hrs for 7 days by immunohistochemical analysis; details: in vivo, topical_or_ocular, 0.2 µM
[18] = system: HUVEC; assay: Anti-angiogenesis activity in truncated-FOSB transfected HUVEC cells model of pseudomyogenic-hemangioendothelioma assessed as inhibition of tube formation; format: functional, cell-based; details: Homo sapiens
[19] = system: HUVEC; assay: Anti-angiogenesis activity in truncated-FOSB transfected HUVEC cells model of pseudomyogenic-hemangioendothelioma assessed as inhibition of cell proliferation; format: functional, cell-based; details: Homo sapiens
[20] = target: Mast/stem cell growth factor receptor Kit (Homo sapiens, UniProt P10721); assay: Inhibition of c-Kit phosphorylation in human TF1 cells assessed as at 0.1 to 0.3 uM incubated for 2 hrs by Western blot analysis; format: cell-based
Mast/stem cell growth factor receptor Kit, sequence (P10721 whole entry): as above

[21] = system: MOLM-14; assay: Induction of apoptosis in human MOLM14 cells at 0.1 uM incubated for 24 hrs by propidium iodide and annexin-V staining based flow cytometry; format: functional, cell-based
[22] = system: MV4-11; assay: Induction of apoptosis in human MV4-11 cells at 0.1 uM incubated for 24 hrs by propidium iodide and annexin-V staining based flow cytometry; format: functional, cell-based
[23] = system: MOLM-14; assay: Induction of apoptosis in human MOLM14 cells assessed as induction of PARP cleavage at 0.1 to 1 uM incubated for 24 hrs by Western blot analysis; format: functional, cell-based
[24] = system: MOLM-14; assay: Induction of apoptosis in human MOLM14 cells assessed as induction of caspase-3 cleavage at 0.1 to 1 uM incubated for 24 hrs by Western blot analysis; format: functional, cell-based
[25] = system: MV4-11; assay: Induction of apoptosis in human MV4-11 cells assessed as induction of PARP cleavage at 0.1 to 1 uM incubated for 24 hrs by Western blot analysis; format: functional, cell-based
[26] = system: MV4-11; assay: Induction of apoptosis in human MV4-11 cells assessed as induction of caspase-3 cleavage at 0.1 to 1 uM incubated for 24 hrs by Western blot analysis; format: functional, cell-based
[27] = species: Homo sapiens; assay: Anti-lymphangiogenic activity in HDLEC assessed as reduction in growth factor cocktail-induced lymphatic sprouting at 10 uM incubated for 4 days by Hoechst 33342 and phalloidin staining based microfluidic platform assay relative to control; format: functional
[28] = system: HUVEC; assay: Anti-angiogenesis activity in truncated-FOSB transfected HUVEC cells model of pseudomyogenic-hemangioendothelioma assessed as inhibition of tube formation up to 5 uM; format: functional, cell-based; details: Homo sapiens

SMILES: COc1cc(O)c2c(c1)CCC[C@H](O)[C@H](O)C(=O)/C=C\C[C@H](C)OC2=O
pIC50 [1]: 8.74 | pIC50 [2]: 8.54 | pIC50 [3]: 9.14 | GI50 [4]: 0.14 µM | GI50 [5]: 0.05 µM | GI50 [6]: 0.27 µM | GI50 at 72 h [7]: 1.7 µM

SMILES: COc1cc(O)c2c(c1)-c1cccc(c1)[C@H](O)[C@H](O)C(=O)CCC[C@H](C)OC2=O
GI50 at 72 h [7]: > 25 µM

SMILES: COc1cc(O)c2c(c1)-c1cccc(c1)[C@@H](O)[C@H](O)[C@H](O)/C=C\C[C@H](C)OC2=O
GI50 at 72 h [7]: > 25 µM

SMILES: COc1cc(O)c2c(c1)-c1cccc(c1)[C@H](O)[C@@H](O)C(=O)CCC[C@H](C)OC2=O
GI50 at 72 h [7]: > 25 µM

SMILES: COc1cc(O)c2c(c1)-c1cccc(c1)[C@@H](O)[C@H](O)C(=O)CCC[C@H](C)OC2=O
GI50 at 72 h [7]: > 25 µM

SMILES: COc1cc(O)c2c(c1)-c1cccc(c1)[C@@H](O)[C@H](O)[C@@H](N)/C=C\C[C@H](C)OC2=O
pIC50 [2]: < 5.00 | pIC50 [3]: < 5.00 | GI50 [4]: > 25 µM | GI50 [5]: > 25 µM | GI50 [6]: > 25 µM | GI50 at 72 h [7]: > 25 µM

SMILES: COc1cc(O)c2c(c1)-c1cccc(c1)CCC(=O)/C=C\C[C@H](C)OC2=O
GI50 at 72 h [7]: > 25 µM

SMILES: CCn1c(N)c(C(=O)NC)c(=O)c2ccc(C#C[C@@](C)(O)COC)nc21
pIC50 [1]: 6.54 | fold change (FC) [27]: 2 | inhibition [13]: inactive | inhibition [14]: inactive | Activity [15]: Active | Activity [17]: Non-Toxic | Activity [28]: inactive | pIC50 [2]: 7.17 | pIC50 [3]: 8.92 | GI50 [4]: 4.6 µM | GI50 [5]: 0.059 µM | GI50 [6]: 18 µM | GI50 at 72 h [7]: > 25 µM

More lines, main results first:

GI50 at 72 h [7]: 17 µM
SMILES: COc1cc(O)c2c(c1)-c1cccc(c1)[C@H](O)[C@@H](O)C(=O)/C=C\C[C@H](C)OC2=O

pIC50 [8]: 6.07 | Activity [9]: 36.6% | GI50 at 72 h [7]: 10 µM
SMILES: COc1cc(O)c2c(c1)-c1cccc(c1)[C@@H](O)[C@H](O)C(=O)/C=C\C[C@H](C)OC2=O
activity at 10 µM [10]: 82.2% | Activity [11]: Active | Activity [12]: Active | inhibition [13]: Active | inhibition [14]: Active | Activity [15]: Active | Activity [16]: Active | Activity [17]: Non-Toxic | Activity [18]: Dose-dependent effect | Activity [19]: Dose-dependent effect | inhibition (INH) [20]: Not Active | Activity [21]: Active | Activity [22]: Active | Activity [23]: Active | Activity [24]: Active | Activity [25]: Active | Activity [26]: Active

GI50 at 72 h [7]: 12 µM
SMILES: COc1cc(O)c2c(c1)-c1cccc(c1)[C@H](O)[C@H](O)C(=O)/C=C\C[C@H](C)OC2=O

pIC50 [2]: < 5.00 | pIC50 [3]: < 5.00 | GI50 [4]: > 25 µM | GI50 [5]: > 25 µM | GI50 at 72 h [7]: > 25 µM
SMILES: C=C1/C=C\C[C@H](C)OC(=O)c2c(O)cc(OC)cc2-c2cccc(c2)[C@@H](O)[C@@H]1O

GI50 at 72 h [7]: 11 µM
SMILES: COc1cc(O)c2c(c1)-c1cccc(c1)[C@@H](O)[C@H](O)C(=O)C/C=C/[C@H](C)OC2=O
